Source: US11174282B2, “Aminosteroid derivatives and process for producing same” (UNIVERSITÉ LAVAL, priority 2016, dated 2021)
Like-named read-outs stand apart in the source and are kept apart here.

Key:
[1] = tested on: OVCAR-3 cells (ovarian cancer); assay: Cell proliferation assay (MTS), OVCAR-3; format: cell-based; conditions: for IC50: 3 days treatment, MTS, read-out: IC50 (μM) Ovarian cancer OVCAR-3; for antiproliferative activity relative to RM-133, OVCAR-3: fold of RM-133 activity (>1 = more active)
Experimental: (§1) The different aminosteroids were dissolved in methanol (50 mM).

[2] = tested on: Human pancreas cancer cells (PANC-1); assay: Cell proliferation assay (MTS), PANC-1; format: cell-based; conditions: for IC50: 3 days treatment, MTS, read-out: IC50 (μM) Pancreatic cancer PANC-1; for antiproliferative activity relative to RM-133, PANC-1: fold of RM-133 activity (>1 = more active)
Experimental: as §1

[3] = tested on: HL-60 (acute promyelocytic leukemia) cells; assay: Cell proliferation assay (MTS), HL-60; format: cell-based; conditions: for IC50: 3 days treatment, MTS, read-out: IC50 (μM) HL-60 (leukemia); for antiproliferative activity relative to RM-133, HL-60: fold of RM-133 activity (>1 = more active)
Experimental: as §1

[4] = Metabolic stability assay, human liver microsomes; conditions: 1 h
Experimental: (§2) Assays were performed at 37° C. for 1 h, with or without 10 mM NADPH in the presence of 40 μg of human liver microsome from Corning (Melrose, Mass., USA) and 10 μM of aminosteroid substrate in a final 100 μL volume of 50 mM Tris buffer (pH 7.4) supplemented with 10 mM MgCl2. Assays were ended by adding 100 μL of MeOH followed by centrifugation at 13,000 g for 10 min to obtain a pellet of proteins. The supernatant of 2 assays was pooled and submitted to HPLC-MS analysis (Shimadzu LCMS-2020 APCI, Alltima HP C18 (250 mm×4.6 mm, 5 μm) column, MeOH:H2O gradient). Remaining substrate (expressed in %) was calculated by dividing the area under the curve of the substrate for the assays without NADPH by the area under the curve of the substrate for the assays with NADPH and multiplied by 100. Values represent the average of 2 independent experiments.

[5] = tested on: PC-3 (prostate cancer) cells; assay: Cell proliferation assay (MTS), PC-3; format: cell-based; conditions: 72 h; 3 days treatment, MTS; read-out: IC50 (μM) Prostate cancer PC-3
Experimental: as §1

[6] = tested on: LAPC-4 (prostate cancer) cells; assay: Cell proliferation assay (MTS), LAPC-4; format: cell-based; conditions: Homo sapiens, LAPC4, 72 h, 3 days treatment, MTS; read-out: IC50 (μM) Prostate cancer LAPC-4
Experimental: as §1

[7] = tested on: LNCaP (prostate cancer) cells; assay: Cell proliferation assay (MTS), LNCaP; format: cell-based; conditions: Homo sapiens, 72 h, 3 days treatment, MTS, read-out: IC50 (μM) Prostate cancer LNCaP
Experimental: as §1

[8] = tested on: MCF-7 breast cancer cells; assay: Cell proliferation assay (MTS), MCF-7; format: cell-based, human; conditions: Homo sapiens, MCF7, 72 h, 3 days treatment
Experimental: as §1

[9] = tested on: T-47D breast cancer cell line; assay: Cell proliferation assay (MTS), T-47D; format: cell-based; conditions: Homo sapiens, T47D, 72 h; 3 days treatment, MTS
Experimental: as §1

[10] = tested on: primary ovary normal cells; assay: cells; format: cell-based, human; conditions: for Selectivity Index Ovary: IC50 normal cells/IC50 cancer cells (primary ovary / OVCAR-3); for IC50: human normal cells, read-out: IC50 (μM) Primary Ovary (normal cells)
Experimental: as §1

[11] = tested on: renal proximal tubule epithelial cells (RPTEC); assay: Toxicity on normal cells (MTS), RPTEC; format: cell-based, human; conditions: for IC50: normal (kidney) cells, read-out: IC50 (μM) RPTEC (normal cells)
Experimental: as §1

[12] = tested on: primary pancreas normal cells; assay: Toxicity on normal cells (MTS), primary pancreas; format: cell-based, human; conditions: for Selectivity Index Pancreas: IC50 normal cells/IC50 cancer cells (primary pancreas / PANC-1); for IC50: human normal cells; for times more toxic relative to RM-133, primary pancreas cells: human, 3 days
Experimental: as §1

[13] = human, 1 h
Experimental: as §2

[14] = tested on: PANC-1, BxPC-3, Hs766, OVCAR-3, Caov3, SKOV3, MCF-7, T-47D and LAPC-4 cell lines; assay: Cytotoxic activity screening at 5 and 1 μM on cancer cell lines; conditions: independently of the cancer cell line tested, result in words
Experimental: The cell proliferation assay was performed using 3-(4,5-dimethylthiazol-2-yl)-5-(3-carboxymethoxyphenyl)2-(4-sulfophenyl)-2H-tetrazolium (MTS) (Cell Titer 96 Aqueous, Promega, Nepean, ON, Canada) as previously described [3, 4, 5]. Briefly, cells were plated in triplicate in 96-well plates (1×10^4 cells/well) in appropriate culture medium (total of 90 μL). Before each treatment, the cells were incubated at 37° C. in a 5% CO2 humidified atmosphere for 24 h. The different aminosteroids were dissolved in methanol (50 mM). The stock solutions were diluted at multiple concentrations with culture media in order to obtain the desired final concentration followed by the addition of 10 μL to each well, and the mixture incubated for 3 days. Following treatment, MTS (10 μL) was added to each well and the mixture was incubated for 4 h.

C#CC1(O)CCC2C3CCC4CC(O)C([N+]5([O-])CCN(C(=O)C6CCCN6C(=O)c6ccc7ccccc7n6)CC5)CC4(C)C3CCC21C [7 (N-oxime), {4-[(2β,3α,5α,17α)-3,17-dihydroxypregn-20-yn-2-yl]-4-oxidopiperazin-1-yl}[(2S)-1-(quinolin-2-ylcarbonyl)pyrrolidin-2-yl]methanone]
IC50 [1]: 29.9 µM | antiproliferative activity relative to RM-133, OVCAR-3 [1]: significant loss of activity | IC50 [2]: > 50 µM | antiproliferative activity relative to RM-133, PANC-1 [2]: significant loss of activity | IC50 [3]: 43.7 µM | antiproliferative activity relative to RM-133, HL-60 [3]: significant loss of activity | increased metabolic stability relative to RM-133 ([4]; human hepatic microsomes): 2.6 fold

C#C[C@@]1(O)CC[C@H]2[C@@H]3CCc4cc(OC)c(C(=O)N5CCN(C(=O)[C@@H]6CCCN6C(=O)c6ccc7ccccc7n6)CC5)cc4[C@H]3CC[C@@]21C [Compound 25, [(17β)-17-ethynyl-17-hydroxy-3-methoxyestra-1,3,5(10)-trien-2-yl](4-{[(2S)-1-(quinolin-2-ylcarbonyl)pyrrolidin-2-yl]carbonyl}piperazin-1-yl)methanone]
IC50 [5]: 1.7 ± 0.4 µM | IC50 [6]: 0.5 ± 0.2 µM | IC50 [7]: 0.8 ± 0.2 µM | IC50 [8]: 2.2 ± 0.1 µM | IC50 [9]: 0.3 ± 0.2 µM | IC50 ([1]; Homo sapiens, OVCAR-3, 72 h): 5.2 ± 1.6 µM | IC50 ([2]; Homo sapiens, PANC-1, 72 h): 3.5 ± 0.4 µM

C#C[C@@]1(O)CC[C@H]2[C@@H]3CC[C@H]4CC(=O)[C@@H](N5CCN(C(=O)[C@@H]6CCCN6C(=O)c6ccc7ccccc7n6)CC5)C[C@]4(C)[C@H]3CC[C@@]21C [2 (ketone), (2β,5α,17α)-17-hydroxy-2-(4-{[(2S)-1-(quinolin-2-ylcarbonyl)pyrrolidin-2-yl]carbonyl}piperazin-1-yl)pregn-20-yn-3-one]
IC50 ([1]; Homo sapiens, OVCAR-3, 72 h): 2.75 µM | antiproliferative activity relative to RM-133, OVCAR-3 [1]: 2 fold | IC50 ([2]; Homo sapiens, PANC-1, 72 h): 7.01 µM | IC50 ([3]; Homo sapiens, HL-60, 72 h): 6.52 µM | Selectivity Index Ovary [10]: 5.5 | IC50 [10]: 15 µM | IC50 ([11]; Homo sapiens, RPTEC): 20.7 µM | Selectivity Index Pancreas [12]: 0.8 | IC50 [12]: 5.41 µM | times more toxic relative to RM-133, primary pancreas cells [12]: 1.7 times

(3α,5α,17α)-pregn-20-yne-3,17-diol [11 (no side-chain; and 3α-OH)]
IC50 [1]: > 50 µM | antiproliferative activity relative to RM-133, OVCAR-3 [1]: inactive | IC50 [2]: > 50 µM | antiproliferative activity relative to RM-133, PANC-1 [2]: inactive | IC50 [3]: > 50 µM | antiproliferative activity relative to RM-133, HL-60 [3]: inactive

C#C[C@]1(O)CC[C@H]2[C@@H]3CCc4cc(OC)c(CN5CCN(C(=O)[C@@H]6CCCN6C(=O)c6ccc7ccccc7n6)CC5)cc4[C@H]3CC[C@@]21C [Compound 29]
IC50 [5]: 1.7 ± 0.3 µM | IC50 [6]: 0.7 ± 0.2 µM | IC50 [7]: 1.3 ± 0.5 µM | IC50 [8]: 2.3 ± 0.6 µM | IC50 [9]: 0.4 ± 0.2 µM | IC50 ([1]; Homo sapiens, OVCAR-3, 72 h): 5 ± 0.2 µM | IC50 ([2]; Homo sapiens, PANC-1, 72 h): 2.6 ± 0.7 µM

(17β)-17-ethynyl-17-hydroxy-2-{4-[1-(quinolin-2-ylcarbonyl)-L-prolyl]piperazin-1-yl}estra-1,3,5(10)-trien-3-yl dihydrogen phosphate [Compound 5]
times less toxic relative to RM-133, primary ovary cells ([10]; normal cells): 1.7 times | times less toxic relative to RM-133, primary pancreas cells ([12]; normal cells): 1.8 times

C#C[C@@]1(O)CC[C@H]2[C@@H]3CC[C@H]4C[C@H](OC(=O)N(C)C)CC[C@]4(C)[C@H]3CC[C@@]21C [12 (no side-chain; and 3-carbamate), (3α,5α,17α)-17-hydroxypregn-20-yn-3-yl dimethylcarbamate]
IC50 ([1]; Homo sapiens, OVCAR-3, 72 h): 48.1 µM | antiproliferative activity relative to RM-133, OVCAR-3 [1]: inactive | IC50 ([2]; Homo sapiens, PANC-1, 72 h): > 50 µM | antiproliferative activity relative to RM-133, PANC-1 [2]: inactive | IC50 ([3]; Homo sapiens, HL-60, 72 h): 15.2 µM | antiproliferative activity relative to RM-133, HL-60 [3]: inactive

C#C[C@@]1(O)CC[C@H]2[C@@H]3CC[C@H]4CC(=O)C(N5CCN(C(=O)[C@@H]6CCCN6C(=O)c6ccc7ccccc7n6)CC5)=C[C@]4(C)[C@H]3CC[C@@]21C [1 (enone), (5α,17α)-17-hydroxy-2-(4-{[(2S)-1-(quinolin-2-ylcarbonyl)pyrrolidin-2-yl]carbonyl}piperazin-1-yl)pregn-1-en-20-yn-3-one]
IC50 [5]: 0.002 µM | IC50 [6]: 0.03 µM | IC50 [7]: 0.002 µM | IC50 ([1]; Homo sapiens, OVCAR-3, 72 h): 0.24 µM | antiproliferative activity relative to RM-133, OVCAR-3 [1]: 22.9 fold | IC50 ([2]; listed as Enone 1): 0.6 µM | IC50 ([2]; Homo sapiens, PANC-1, 72 h): 0.59 µM | antiproliferative activity relative to RM-133, PANC-1 [2]: 11.3 fold | IC50 ([3]; Homo sapiens, HL-60, 72 h): 3.16 µM | antiproliferative activity relative to RM-133, HL-60 [3]: 2.3 fold | Selectivity Index Ovary [10]: 38 | IC50 [10]: 9.12 µM | times more toxic relative to RM-133, primary ovary cells ([10]; human, 3 days): 1.6 times | IC50 ([11]; Homo sapiens, RPTEC): 4.5 to 15.3 µM | IC50 [11]: 4.55 µM | Selectivity Index Pancreas [12]: 3.7 | IC50 [12]: 2.2 µM | times more toxic relative to RM-133, primary pancreas cells [12]: 4.3 times

C#C[C@@]1(O)CC[C@H]2[C@@H]3CCc4cc(OS(N)(=O)=O)c(N5CCN(C(=O)[C@@H]6CCCN6C(=O)c6ccc7ccccc7n6)CC5)cc4[C@H]3CC[C@@]21C [Compound 4, (17β)-17-ethynyl-17-hydroxy-2-{4-[1-(quinolin-2-ylcarbonyl)-L-prolyl]piperazin-1-yl}estra-1,3,5(10)-trien-3-yl sulfamate]
IC50 [5]: 1.6 ± 0.1 µM | IC50 [6]: 0.3 ± 0.2 µM | IC50 [7]: 0.9 ± 0.3 µM | IC50 [8]: 1.2 ± 0.4 µM | IC50 [9]: 0.2 ± 0.01 µM | IC50 ([1]; Homo sapiens, OVCAR-3, 72 h): 3.1 ± 0.5 µM | IC50 ([2]; Homo sapiens, PANC-1, 72 h): 3 ± 0.2 µM | times less toxic relative to RM-133, primary ovary cells [10]: 2.9 times | times less toxic relative to RM-133, primary pancreas cells [12]: 3.2 times | phenolic metabolite RM-581-OH (stability of potential prodrugs to hydrolysis) ([13]; 10 μM, pH 7.4): no trace of the phenolic metabolite RM-581-OH could be observed

C#Cc1cc2c(cc1N1CCN(C(=O)[C@@H]3CCCN3C(=O)c3ccc4ccccc4n3)CC1)[C@H]1CC[C@@]3(C)[C@@H](CC[C@@]3(O)C#C)[C@@H]1CC2 [Compound 17a, {4-[(17β)-3,17-diethynyl-17-hydroxyestra-1,3,5(10)-trien-2-yl]piperazin-1-yl}[(2S)-1-(quinolin-2-ylcarbonyl)pyrrolidin-2-yl]methanone]
cytotoxic activity in screening (cell survival) [14]: only slight differences in their respective levels of activity

CN1CCN(C(=O)[C@@H]2CCCN2C(=O)c2ccc3ccccc3n2)CC1 [10 (side-chain only), (4-methylpiperazin-1-yl)[(2S)-1-(quinolin-2-ylcarbonyl)pyrrolidin-2-yl]methanone]
IC50 ([1]; Homo sapiens, OVCAR-3, 72 h): > 50 µM | antiproliferative activity relative to RM-133, OVCAR-3 [1]: completely inactive | IC50 ([2]; Homo sapiens, PANC-1, 72 h): > 50 µM | antiproliferative activity relative to RM-133, PANC-1 [2]: completely inactive | IC50 ([3]; Homo sapiens, HL-60, 72 h): > 50 µM | antiproliferative activity relative to RM-133, HL-60 [3]: completely inactive | metabolic stability (% of remaining compound) ([4]; 10 μM, 40 μg human liver microsomes, result in words): more stable than steroid 12 lacking the 2β-side chain or RM-133 itself

(17β)-17-ethynyl-17-hydroxy-2-{4-[1-(quinolin-2-ylcarbonyl)-L-prolyl]piperazin-1-yl}estra-1,3,5(10)-trien-3-yl dimethylcarbamate [Compound 1]
more cytotoxic relative to RM-133, RPTEC ([11]; normal cells): 5.0 fold

C#C[C@@]1(O)CC[C@H]2[C@@H]3CC[C@H]4C[C@@H](N5CCN(C(=O)[C@@H]6CCCN6C(=O)c6ccc7ccccc7n6)CC5)CC[C@]4(C)[C@H]3CC[C@@]21C [15 (side-chain at 3β), {4-[(3β,5α,17α)-17-hydroxypregn-20-yn-3-yl]piperazin-1-yl}[(2S)-1-(quinolin-2-ylcarbonyl)pyrrolidin-2-yl]methanone]
IC50 ([1]; Homo sapiens, OVCAR-3, 72 h): > 50 µM | antiproliferative activity relative to RM-133, OVCAR-3 [1]: completely inactive | IC50 ([2]; Homo sapiens, PANC-1, 72 h): > 50 µM | antiproliferative activity relative to RM-133, PANC-1 [2]: completely inactive | IC50 ([3]; Homo sapiens, HL-60, 72 h): > 50 µM | antiproliferative activity relative to RM-133, HL-60 [3]: completely inactive | metabolic stability (% of remaining compound) ([13]; microsomes, 10 μM, pH 7.4): little to no variation on the metabolic stability relative to RM-133

(2β,3α,5α,17α)-3,17-dihydroxy-2-(1-methyl-4-t[(2S)-1-(quinolin-2-ylcarbonyl) pyrrolidin-2-yl]carbonylpiperazin-1-ium-1-yl)pregn-20-yne iodide [6 (CH3-salt)]
IC50 [1]: > 50 µM | antiproliferative activity relative to RM-133, OVCAR-3 [1]: significant loss of activity | IC50 [2]: > 50 µM | antiproliferative activity relative to RM-133, PANC-1 [2]: significant loss of activity | IC50 [3]: > 50 µM | antiproliferative activity relative to RM-133, HL-60 [3]: significant loss of activity | increased metabolic stability relative to RM-133 ([13]; microsomes): 2.4 fold
